Laboratory results reported in ChEMBL document CHEMBL6083291, “Discovery of Thiochroman Derivatives as Potent, Oral Selective Estrogen Receptor Degraders and Antagonists for the Treatment of Endocrine-Resistant Breast Cancer” (J Med Chem, 2024).

Columns and labels:
MCF7 [1] = assay: Antiproliferative activity against human MCF7 cells assessed as reduction in cell viability incubated for 6 days by CellTiter-Glo reagent based luminescence analysis
[2] = target: Voltage-gated inwardly rectifying potassium channel KCNH2 (Homo sapiens, UniProt Q12809); assay: Inhibition of hERG expressed in CHO cells assessed as inhibition of channel current by automated Qpatch clamp analysis
[3] = Antiproliferative activity against endocrine-resistant human MCF7 Tam1 cells assessed as inhibition of cell growth; conditions: Tamoxifen-resistant MCF7
Estrogen receptor [4] = target: T1, Estrogen receptor (Homo sapiens, UniProt P03372); assay: Induction of ER-alpha degradation in human MCF7 cells incubated for 24 hrs by In-Cell Western blot analysis; assay type: cell-based
T1 sequence (P03372 whole entry): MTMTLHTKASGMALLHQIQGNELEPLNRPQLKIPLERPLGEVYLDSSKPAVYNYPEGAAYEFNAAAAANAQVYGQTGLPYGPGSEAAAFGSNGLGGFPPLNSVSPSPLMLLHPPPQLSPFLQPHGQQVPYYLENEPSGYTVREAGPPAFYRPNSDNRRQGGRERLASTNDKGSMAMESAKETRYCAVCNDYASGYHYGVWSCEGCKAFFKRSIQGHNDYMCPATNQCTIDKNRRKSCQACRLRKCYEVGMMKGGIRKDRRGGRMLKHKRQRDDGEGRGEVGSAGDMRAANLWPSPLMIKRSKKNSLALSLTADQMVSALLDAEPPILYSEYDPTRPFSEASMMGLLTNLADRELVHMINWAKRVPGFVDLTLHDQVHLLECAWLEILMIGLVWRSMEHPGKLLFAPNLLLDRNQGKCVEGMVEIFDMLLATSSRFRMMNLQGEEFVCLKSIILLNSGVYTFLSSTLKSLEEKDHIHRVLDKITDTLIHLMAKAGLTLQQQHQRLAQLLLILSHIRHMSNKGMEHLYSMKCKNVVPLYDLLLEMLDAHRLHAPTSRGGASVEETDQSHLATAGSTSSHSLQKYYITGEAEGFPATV

Estrogen receptor [5] = target: T1, Estrogen receptor; assay type: cell-based, HEK293
MCF7 [6] = assay: Antiproliferative activity against human MCF7 cells harboring ER-alpha Y537S mutant assessed as inhibition of cell growth
CAMA-1 = assay: Antiproliferative activity against human CAMA-1 cells assessed as reduction in cell viability
BT-474 = assay: Antiproliferative activity against human BT-474 cells assessed as reduction in cell viability
T47D = assay: Antiproliferative activity against human T47D cells assessed as reduction in cell viability
MDA-MB-361 = assay: Antiproliferative activity against human MDA-MB-361 cells assessed as reduction in cell viability
[7] = Antagonist activity at ER-alpha Y537S mutant (unknown origin) expressed in human MCF7 cells assessed as inhibition of ER-alpha transcription by immunofluorescence assay
[8] = Antagonist activity at ER-alpha D538G mutant (unknown origin) expressed in human MCF7 cells assessed as inhibition of ER-alpha transcription by immunofluorescence assay

Chain of Voltage-gated inwardly rectifying potassium channel KCNH2 (Q12809 whole entry): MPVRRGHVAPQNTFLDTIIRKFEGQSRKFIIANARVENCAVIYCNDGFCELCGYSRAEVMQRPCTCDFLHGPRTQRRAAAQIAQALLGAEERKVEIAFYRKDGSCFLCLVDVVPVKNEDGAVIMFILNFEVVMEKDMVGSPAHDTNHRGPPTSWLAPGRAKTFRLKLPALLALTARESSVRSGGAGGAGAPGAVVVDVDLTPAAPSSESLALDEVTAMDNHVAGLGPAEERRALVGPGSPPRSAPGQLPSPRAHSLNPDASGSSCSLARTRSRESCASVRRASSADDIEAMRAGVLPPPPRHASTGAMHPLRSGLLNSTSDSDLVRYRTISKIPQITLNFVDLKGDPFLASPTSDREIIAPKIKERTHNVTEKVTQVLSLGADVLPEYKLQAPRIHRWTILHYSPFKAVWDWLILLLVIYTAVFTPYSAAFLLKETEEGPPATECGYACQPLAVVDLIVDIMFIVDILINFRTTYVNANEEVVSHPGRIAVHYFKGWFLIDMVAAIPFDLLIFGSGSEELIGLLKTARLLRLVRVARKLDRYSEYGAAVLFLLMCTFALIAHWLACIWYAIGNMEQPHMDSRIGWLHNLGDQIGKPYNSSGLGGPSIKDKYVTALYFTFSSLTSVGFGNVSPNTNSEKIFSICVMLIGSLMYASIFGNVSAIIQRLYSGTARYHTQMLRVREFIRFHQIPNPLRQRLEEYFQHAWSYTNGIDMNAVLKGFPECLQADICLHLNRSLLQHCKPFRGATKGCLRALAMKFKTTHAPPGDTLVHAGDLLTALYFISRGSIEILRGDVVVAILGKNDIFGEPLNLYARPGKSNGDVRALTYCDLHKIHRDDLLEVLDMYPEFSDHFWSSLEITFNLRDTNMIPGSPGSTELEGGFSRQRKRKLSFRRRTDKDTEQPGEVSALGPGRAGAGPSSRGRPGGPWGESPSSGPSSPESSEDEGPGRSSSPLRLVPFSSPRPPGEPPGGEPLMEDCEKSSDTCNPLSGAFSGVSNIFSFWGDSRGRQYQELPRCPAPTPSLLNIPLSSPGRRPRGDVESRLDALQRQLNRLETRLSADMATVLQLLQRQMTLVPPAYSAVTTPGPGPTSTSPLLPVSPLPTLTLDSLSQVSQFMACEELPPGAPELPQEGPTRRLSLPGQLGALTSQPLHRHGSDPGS

| SMILES | IC50 (MCF7 [1]; Homo sapiens, MCF7, 144 h) [nM] | IC50 [2] [nM] | other results |
| --- | --- | --- | --- |
| Oc1ccc2c(c1)OC[C@H](c1ccc(Cl)cc1F)[C@@H]2c1ccc(OCCN2CC(CF)C2)cc1 (racemic) | 4.2 | – | – |
| COc1cc(F)ccc1[C@@H]1CSc2cc(O)ccc2[C@@H]1c1ccc(OCCN2CC(CF)C2)cc1 | 25 | – | – |
| COc1cc(F)ccc1[C@H]1CSc2cc(O)ccc2[C@H]1c1ccc(OCCN2CC(CF)C2)cc1 (racemic) | – | > 40000 | IC50 (MCF7 [1]; mcf7): 0.6 nM |
| Oc1ccc2c(c1)OC[C@H](c1ccc(F)cc1F)[C@@H]2c1ccc(OCCN2CC(CF)C2)c(F)c1 (racemic) | – | 6400 | – |
| Oc1ccc2c(c1)OCC[C@H](c1ccc(F)cc1F)[C@@H]2c1ccc(OCCN2CC(CF)C2)cc1 (racemic) | 47 | – | – |
| C[C@@H]1Cc2c([nH]c3ccccc23)[C@@H](c2c(F)cc(NC3CN(CCCF)C3)cc2F)N1CC(F)(F)CO [GIREDESTRANT] | 0.2 | – | IC50 [3]: 1.22 nM; DC50 (Estrogen receptor [4]): 0.3 nM; IC50 (Estrogen receptor [5]): 0.43 nM; IC50 (MCF7 [6]): 6.77 nM |
| Oc1ccc2c(c1)OC[C@H](c1ccc(F)cc1F)[C@@H]2c1ccc(OC2CN(CCCF)C2)cc1 (racemic) | 7.7 | – | DC50 (Estrogen receptor [4]): 2.8 nM |
| CC(=O)N1CCC([C@H]2COc3cc(O)ccc3[C@H]2c2ccc(OCCN3CC(CF)C3)cc2)CC1 (racemic) | 9.5 | – | DC50 (Estrogen receptor [4]): 24 nM |
| Oc1ccc2c(c1)OC[C@H](c1ccc(F)cc1F)[C@@H]2c1cc(F)c(OCCN2CC(CF)C2)c(F)c1 (racemic) | 1.4 | 1900 | – |
| O=C(CN1CC(CF)C1)Nc1ccc([C@@H]2c3ccc(O)cc3OC[C@@H]2c2ccc(F)cc2F)cc1 (racemic) | 243 | – | – |
| O=C1CC[C@H](N2Cc3cc(N4CCN(CC5CCN(c6ccc([C@@H]7c8ccc(O)cc8CC[C@@H]7c7ccccc7)cc6)CC5)CC4)ccc3C2=O)C(=O)N1 [VEPDEGESTRANT] | 2.7 | – | IC50 [3]: 2.12 nM; IC50 (MCF7 [6]): 133 nM |
| COc1ccc([C@H]2CSc3cc(O)ccc3[C@H]2c2ccc(OCCN3CC(CF)C3)cc2)c(F)c1 (racemic) | 0.4 | – | – |
| CS(=O)(=O)N1CCC([C@H]2COc3cc(O)ccc3[C@H]2c2ccc(OCCN3CC(CF)C3)cc2)CC1 (racemic) | 6.2 | – | DC50 (Estrogen receptor [4]): 8.8 nM |
| Oc1ccc2c(c1)SC[C@H](c1cc(F)c(F)cc1F)[C@@H]2c1ccc(OCCN2CC(CF)C2)cc1 | – | – | IC50 (CAMA-1): 4 nM; IC50 (BT-474): 4 nM; IC50 (T47D): 4 nM; IC50 (MDA-MB-361): ~15 nM; IC50 (MCF7 [1]; mcf7): 0.25 nM |
| COc1cc(F)ccc1[C@H]1CSc2cc(O)ccc2[C@H]1c1ccc(OCCN2CC(CF)C2)c(F)c1 (racemic) | 0.7 | > 40000 | – |
| N#Cc1cc(F)ccc1[C@H]1COc2cc(O)ccc2[C@H]1c1ccc(OCCN2CC(CF)C2)cc1 (racemic) | 4.9 | – | – |
| C[C@]12CC[C@@H]3c4ccc(O)cc4C[C@@H](CCCCCCCCC[S+]([O-])CCCC(F)(F)C(F)(F)F)[C@H]3[C@@H]1CC[C@@H]2O (some centres undefined) [FULVESTRANT] | – | – | IC50 [7]: 13.3 nM; IC50 [8]: 15.3 nM |
| COc1cc(F)ccc1[C@H]1CS(=O)(=O)c2cc(O)ccc2[C@H]1c1ccc(OCCN2CC(CF)C2)cc1 (racemic) | 1.6 | > 40000 | – |
| Oc1ccc2c(c1)SC[C@H](c1ccc(F)cc1F)[C@@H]2c1ccc(OCCN2CC(CF)C2)cc1 (racemic) | 0.6 | 13000 | – |
| FCC1CN(CCOc2ccc([C@@H]3c4ccc5[nH]ncc5c4SC[C@@H]3c3cc(F)c(F)cc3F)cc2)C1 (racemic) | 5.8 | – | DC50 (Estrogen receptor [4]): 6.6 nM |
| Oc1ccc2c(c1)OCC(c1ccc(F)cc1F)=C2c1ccc(OCCN2CC(CF)C2)cc1 | 58 | – | – |
| Cn1cc([C@H]2COc3cc(O)ccc3[C@H]2c2ccc(OCCN3CC(CF)C3)cc2)cn1 (racemic) | 38 | – | DC50 (Estrogen receptor [4]): 98 nM |
| Oc1ccc2c(c1)OC[C@H](c1cc(F)c(F)cc1F)[C@@H]2c1ccc(OCCN2CC(CF)C2)cc1 (racemic) | – | 2800 | – |
